Data from US9265845B2, “Imaging methods using engineered integrin binding peptides” (The Board of Trustees of the Leland Stanford Junior …, priority 2006, dated 2016).
Positions of bridges follow the written chain, without caps; N, C: chain ends. Residues, ends and D or L forms follow the SMILES beside them. No end group written: not given here.

Key:
[1] = system: K562-αvβ3 cells; assay: Equilibrium binding to K562 cells expressing αvβ3 integrin; conditions: recombinant peptides with FLAG and His tags
Description: To determine the binding specificities of the AgRP peptides for αvβ3 integrin versus the αvβ5 and α5β1 integrins also expressed on U87MG cells, K562 leukemia cells that had been stably transfected with individual α and β integrin subunits were used. The engineered AgRP peptides were tested for binding to untransfected K562 cells, which intrinsically express α5β1 integrin. Equilibrium binding assays were performed on the untransfected K562 cells as described above for the U87MG cells. Three peptide concentrations were tested. Negligible signal over background levels (cells stained with fluorescein-conjugated anti-His antibody alone) even at 500 nM, the highest concentration tested, was observed.
The engineered AgRP peptides were tested for binding to K562 cells expressing αvβ5 αiiiβ3 or αvβ3 integrins. The peptides were tested at three concentrations with very little signal over background for cells expressing αvβ5 integrin, even at 500 nM, the highest concentration. The peptides bound weakly to the K562 cells expressing αiiβ3 integrins and, as expected, strongly to the K562 cells expressing αvβ3 integrins. In order to determine KD values for the engineered AgRP peptides against K562-αiiβ3 and K562-αvβ3 cells, binding titrations were done over a larger range of concentrations. […] KD values for peptide binding to K562-αiibβ3 cells could not be determined because binding was still increasing at the highest concentration (5 μM) of peptides tested.
All cell lines were cultured at 37° C. with 5% CO2. Adherent U87MG cells were obtained from ATCC and cultured in DMEM media (Gibco 11995) supplemented with 10% fetal bovine serum. Untransfected K562 cells (α5 β1-positive) were obtained from ATCC and cultured in suspension in IMDM media (Gibco 12440) supplemented with 10% fetal bovine serum. K562 cells stably transfected with αv β3, αv β5, or αiib β3 integrins were obtained from S. Blystone (Blystone, S. D., Graham, I. L., Lindberg, F. P. & Brown, E. J. (1994). Integrin avb3 differentially regulates adhesive and phagocytic functions of the fibronectin receptor a5b1. J. Cell Biol. 127, 1129-1137) and were grown in media supplemented with 10 μg/mL geneticin. Equilibrium binding assays were performed with 10^5 cells per reaction. Cells were suspended in IBB with varying amounts of engineered AgRP peptide at 4° C. for 3 h with gentle rocking. The cells were washed and resuspended in BPBS with a 1:40 dilution of fluorescein-conjugated anti-6×-His antibody (Bethyl A190-113F) and incubated on ice for 20 min. After washing, the cells were analyzed by flow cytometry using a BD FACSCalibur instrument and CellQuest software (Becton Dickinson, Franklin Lakes, N.J.). Mean fluorescence intensity values for each cell population was plotted against concentration on a log scale. […]

[2] = system: U87MG glioblastoma cells; assay: Direct equilibrium binding titration on U87MG glioblastoma cells; conditions: for Kd: recombinant peptides with FLAG and His tags, 3 h at 4° C.
Description: Direct equilibrium binding titrations of the recombinant engineered AgRP peptides were performed on U87MG glioblastoma cells. Peptides were incubated with cells for 3 h at 4° C., followed by staining with a fluorescein-conjugated anti-His antibody and analysis by flow cytometry. Equilibrium binding constant (KD) values were obtained by fitting plots of concentration versus mean fluorescence intensity to a sigmoidal curve using KaleidaGraph software.
All cell lines were cultured at 37° C. with 5% CO2. Adherent U87MG cells were obtained from ATCC and cultured in DMEM media (Gibco 11995) supplemented with 10% fetal bovine serum. Untransfected K562 cells (α5 β1-positive) were obtained from ATCC and cultured in suspension in IMDM media (Gibco 12440) supplemented with 10% fetal bovine serum. K562 cells stably transfected with αv β3, αv β5, or αiib β3 integrins were obtained from S. Blystone (Blystone, S. D., Graham, I. L., Lindberg, F. P. & Brown, E. J. (1994). Integrin avb3 differentially regulates adhesive and phagocytic functions of the fibronectin receptor a5b1. J. Cell Biol. 127, 1129-1137) and were grown in media supplemented with 10 μg/mL geneticin. Equilibrium binding assays were performed with 10^5 cells per reaction. Cells were suspended in IBB with varying amounts of engineered AgRP peptide at 4° C. for 3 h with gentle rocking. The cells were washed and resuspended in BPBS with a 1:40 dilution of fluorescein-conjugated anti-6×-His antibody (Bethyl A190-113F) and incubated on ice for 20 min. After washing, the cells were analyzed by flow cytometry using a BD FACSCalibur instrument and CellQuest software (Becton Dickinson, Franklin Lakes, N.J.). Mean fluorescence intensity values for each cell population was plotted against concentration on a log scale. Data was fit to sigmoidal curves to obtain equilibrium dissociation constants using KaleidaGraph (Synergy Software), and is presented as average values with standard deviations. Each assay was performed a minimum of three times.

[3] = target: αiibβ3 integrin (Homo sapiens, UniProt P05106+P08514); assay: Competition of 125I-echistatin to detergent-solubilized plate-coated integrin; assay type: binding; conditions: 0.06 nM 125I echistatin, 5 nM and 50 nM peptide
Description: (§1) FIG. 10A through FIG. 10D is a series of histograms showing binding specificities to integrins αvβ3, αvβ5, α5β1, and αiibβ3 for engineered EETI-RGD peptides compared to controls. Error bars represent experiments performed in triplicate. Competition binding of 0.06 nM ^125I echistatin with 5 nM (black bars) and 50 nM (grey bars) unlabeled peptide to plate-coated integrins was measured. […] The engineered peptides have very little binding to αiibβ3 integrin.
(§2) This was done by competition of ^125I-echistatin to detergent-solubilized integrin receptors coated onto microtiter plates (see FIG. 10). […] This is consistent with previous studies which have shown αv integrin receptors can accommodate a wide range of RGD-containing cyclic structures. […] However, since α5β1 integrins are expressed on many tumors and are all involved in mediating angiogenesis and metastasis, a broad spectrum agent that targets all three integrins will be useful for diagnostic and therapeutic applications. With the exception of echistatin, all of the RGD-containing peptides bound weakly to the αiibβ3 receptor, showing the specificity of the present peptides for the αv and α5-containing integrin heterodimers. This characteristic is valuable for molecular imaging and therapeutic applications, since binding to αiibβ3 on platelet cells prevents blood clotting and would lead to non-specific in vivo effects.

[4] = target: αvβ3 integrin (Homo sapiens, UniProt P05106+P06756); assay: as above; assay type: binding; conditions: 0.06 nM 125I echistatin, 5 nM and 50 nM peptide
Description: as §1, §2

[5] = target: α5β1 integrin (Homo sapiens, UniProt P05556+P08648); assay: as above; assay type: binding; conditions: 0.06 nM 125I echistatin, 5 nM and 50 nM peptide
Description: as §1, §2

[6] = target: αvβ5 integrin (Homo sapiens, UniProt P06756+P18084); assay: as above; assay type: binding; conditions: 0.06 nM 125I echistatin, 5 nM and 50 nM peptide
Description: as §1, §2

Chain of αvβ5 integrin (P06756 31-889 limits assumed): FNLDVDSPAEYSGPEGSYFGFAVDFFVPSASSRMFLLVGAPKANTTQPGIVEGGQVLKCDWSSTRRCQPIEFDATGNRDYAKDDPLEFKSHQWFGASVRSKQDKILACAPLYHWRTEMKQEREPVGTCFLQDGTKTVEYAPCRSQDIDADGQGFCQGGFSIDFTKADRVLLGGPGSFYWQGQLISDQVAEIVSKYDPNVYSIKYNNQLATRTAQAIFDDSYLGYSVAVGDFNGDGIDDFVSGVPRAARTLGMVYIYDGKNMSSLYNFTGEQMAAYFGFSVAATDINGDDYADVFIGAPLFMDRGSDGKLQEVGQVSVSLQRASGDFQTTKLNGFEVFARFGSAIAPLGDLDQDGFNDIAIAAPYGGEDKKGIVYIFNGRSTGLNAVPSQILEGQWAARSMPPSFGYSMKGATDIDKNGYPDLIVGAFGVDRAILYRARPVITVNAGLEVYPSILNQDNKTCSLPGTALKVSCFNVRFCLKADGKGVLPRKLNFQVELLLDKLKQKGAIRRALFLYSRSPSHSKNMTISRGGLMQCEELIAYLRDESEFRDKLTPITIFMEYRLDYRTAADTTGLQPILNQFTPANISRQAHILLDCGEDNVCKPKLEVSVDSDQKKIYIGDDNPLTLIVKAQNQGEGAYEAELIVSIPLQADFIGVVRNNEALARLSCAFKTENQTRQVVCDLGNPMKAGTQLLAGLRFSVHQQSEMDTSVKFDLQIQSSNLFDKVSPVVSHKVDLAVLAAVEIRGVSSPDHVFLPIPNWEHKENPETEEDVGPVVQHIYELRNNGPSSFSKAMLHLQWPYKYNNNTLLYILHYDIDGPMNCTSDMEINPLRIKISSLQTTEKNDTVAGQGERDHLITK
Chain of αvβ5 integrin (P06756 891-1048 partner limits assumed): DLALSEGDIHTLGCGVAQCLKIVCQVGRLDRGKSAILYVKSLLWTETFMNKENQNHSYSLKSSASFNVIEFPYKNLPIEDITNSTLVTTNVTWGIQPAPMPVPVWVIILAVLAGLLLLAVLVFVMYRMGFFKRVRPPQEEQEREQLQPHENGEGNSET
Chain of αvβ5 integrin (P18084 24-799): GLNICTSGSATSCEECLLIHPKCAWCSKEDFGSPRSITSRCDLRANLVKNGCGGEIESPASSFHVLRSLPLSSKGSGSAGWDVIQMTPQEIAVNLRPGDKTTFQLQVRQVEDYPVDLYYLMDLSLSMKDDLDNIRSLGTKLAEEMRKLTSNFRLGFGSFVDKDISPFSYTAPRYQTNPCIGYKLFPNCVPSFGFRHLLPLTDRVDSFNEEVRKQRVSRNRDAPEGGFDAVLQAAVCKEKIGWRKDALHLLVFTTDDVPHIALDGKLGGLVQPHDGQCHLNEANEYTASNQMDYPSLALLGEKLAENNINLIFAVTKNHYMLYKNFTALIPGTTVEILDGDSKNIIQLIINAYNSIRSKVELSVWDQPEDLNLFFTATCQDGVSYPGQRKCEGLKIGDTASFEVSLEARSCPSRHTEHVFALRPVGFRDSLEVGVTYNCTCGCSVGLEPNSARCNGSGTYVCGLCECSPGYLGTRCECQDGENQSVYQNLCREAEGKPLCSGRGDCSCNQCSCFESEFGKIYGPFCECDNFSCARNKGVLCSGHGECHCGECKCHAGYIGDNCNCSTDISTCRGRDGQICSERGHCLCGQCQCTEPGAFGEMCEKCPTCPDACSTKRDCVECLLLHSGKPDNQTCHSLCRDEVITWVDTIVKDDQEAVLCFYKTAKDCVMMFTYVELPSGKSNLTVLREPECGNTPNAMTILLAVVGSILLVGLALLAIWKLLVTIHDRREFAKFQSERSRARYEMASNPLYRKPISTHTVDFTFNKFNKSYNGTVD
Chain of αvβ3 integrin (P06756 31-889 limits assumed): as the sequence (P06756 31-889 limits assumed) above
Chain of αvβ3 integrin (P06756 891-1048 partner limits assumed): as the sequence (P06756 891-1048 partner limits assumed) above
Chain of αvβ3 integrin (P05106 27-788): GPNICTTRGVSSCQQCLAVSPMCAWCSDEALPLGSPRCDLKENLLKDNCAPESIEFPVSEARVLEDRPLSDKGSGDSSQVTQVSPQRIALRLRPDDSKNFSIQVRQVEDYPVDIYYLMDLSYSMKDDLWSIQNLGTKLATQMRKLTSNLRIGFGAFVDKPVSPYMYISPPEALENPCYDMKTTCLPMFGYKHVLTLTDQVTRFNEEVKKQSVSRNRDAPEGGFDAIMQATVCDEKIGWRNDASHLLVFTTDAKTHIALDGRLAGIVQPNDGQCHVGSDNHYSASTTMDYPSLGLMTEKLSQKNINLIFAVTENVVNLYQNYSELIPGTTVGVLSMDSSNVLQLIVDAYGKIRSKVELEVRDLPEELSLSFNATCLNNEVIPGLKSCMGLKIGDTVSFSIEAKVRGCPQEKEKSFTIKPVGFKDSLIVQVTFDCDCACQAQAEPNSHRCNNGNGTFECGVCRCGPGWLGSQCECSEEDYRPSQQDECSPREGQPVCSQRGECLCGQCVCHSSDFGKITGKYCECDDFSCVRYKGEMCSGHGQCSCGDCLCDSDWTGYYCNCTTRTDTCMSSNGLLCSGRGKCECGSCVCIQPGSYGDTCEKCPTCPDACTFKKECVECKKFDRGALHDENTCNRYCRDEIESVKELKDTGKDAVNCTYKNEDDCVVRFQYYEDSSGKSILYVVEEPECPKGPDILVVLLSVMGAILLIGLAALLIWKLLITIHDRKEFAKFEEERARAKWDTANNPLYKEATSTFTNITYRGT
Chain of α5β1 integrin (P08648 42-894 limits assumed): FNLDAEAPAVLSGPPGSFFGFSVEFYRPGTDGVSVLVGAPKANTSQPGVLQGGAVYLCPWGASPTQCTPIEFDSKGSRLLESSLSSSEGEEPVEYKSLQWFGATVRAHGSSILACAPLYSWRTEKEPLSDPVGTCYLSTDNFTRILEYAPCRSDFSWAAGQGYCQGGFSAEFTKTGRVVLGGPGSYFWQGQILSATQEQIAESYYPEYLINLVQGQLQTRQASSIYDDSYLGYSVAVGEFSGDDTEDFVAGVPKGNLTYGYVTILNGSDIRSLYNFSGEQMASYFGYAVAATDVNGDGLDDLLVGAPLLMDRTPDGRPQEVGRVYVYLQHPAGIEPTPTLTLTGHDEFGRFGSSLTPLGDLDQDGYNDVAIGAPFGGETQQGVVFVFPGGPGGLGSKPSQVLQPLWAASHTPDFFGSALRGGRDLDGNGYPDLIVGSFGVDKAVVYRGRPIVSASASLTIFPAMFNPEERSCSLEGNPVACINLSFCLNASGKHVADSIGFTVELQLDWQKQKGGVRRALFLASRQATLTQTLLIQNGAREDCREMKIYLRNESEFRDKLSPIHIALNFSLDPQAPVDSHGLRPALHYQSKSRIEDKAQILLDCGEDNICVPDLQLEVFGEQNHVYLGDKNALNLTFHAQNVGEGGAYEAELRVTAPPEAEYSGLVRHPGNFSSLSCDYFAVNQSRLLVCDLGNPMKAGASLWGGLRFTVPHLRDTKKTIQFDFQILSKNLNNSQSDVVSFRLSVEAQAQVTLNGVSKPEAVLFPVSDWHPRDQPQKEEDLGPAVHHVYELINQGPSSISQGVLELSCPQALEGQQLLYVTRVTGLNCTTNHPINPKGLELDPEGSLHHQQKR
Chain of α5β1 integrin (P08648 895-1049 partner limits assumed): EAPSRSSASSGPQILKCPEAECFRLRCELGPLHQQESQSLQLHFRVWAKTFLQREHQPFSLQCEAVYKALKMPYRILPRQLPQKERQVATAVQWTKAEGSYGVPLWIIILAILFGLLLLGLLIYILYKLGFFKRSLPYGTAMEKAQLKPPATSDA
Chain of α5β1 integrin (P05556 21-798): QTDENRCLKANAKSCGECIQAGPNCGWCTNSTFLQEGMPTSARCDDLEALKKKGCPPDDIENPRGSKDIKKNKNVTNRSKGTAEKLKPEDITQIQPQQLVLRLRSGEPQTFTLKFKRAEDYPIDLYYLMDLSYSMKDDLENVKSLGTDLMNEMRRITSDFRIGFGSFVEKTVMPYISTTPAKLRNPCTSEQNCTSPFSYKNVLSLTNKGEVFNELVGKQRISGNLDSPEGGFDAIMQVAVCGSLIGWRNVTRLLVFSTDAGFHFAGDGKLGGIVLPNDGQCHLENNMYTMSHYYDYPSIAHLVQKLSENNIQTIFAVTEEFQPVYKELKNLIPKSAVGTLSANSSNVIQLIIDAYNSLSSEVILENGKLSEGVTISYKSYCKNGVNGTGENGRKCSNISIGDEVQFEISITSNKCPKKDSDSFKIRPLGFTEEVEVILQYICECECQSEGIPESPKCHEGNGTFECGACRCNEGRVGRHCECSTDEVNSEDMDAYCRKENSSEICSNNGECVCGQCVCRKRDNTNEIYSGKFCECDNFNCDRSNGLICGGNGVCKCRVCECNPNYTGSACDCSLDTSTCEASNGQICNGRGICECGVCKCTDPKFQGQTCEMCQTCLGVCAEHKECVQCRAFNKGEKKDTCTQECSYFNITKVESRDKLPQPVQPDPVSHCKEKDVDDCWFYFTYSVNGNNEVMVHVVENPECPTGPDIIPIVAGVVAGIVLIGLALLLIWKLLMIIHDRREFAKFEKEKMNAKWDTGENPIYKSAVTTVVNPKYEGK

Row | Molecule | Kd [1] [nM] | Kd [2] [nM] | fold improvement in affinity over the worst binder, 6C [2] [fold] | binding to αiibβ3 integrin, in words [3] | binding to αvβ3 integrin, in words [4] | binding to α5β1 integrin, in words [5] | binding to αvβ5 integrin, in words [6]
1 | CC(C)C[C@@H]1NC(=O)[C@@H]2CSSC[C@@H]3NC(=O)[C@H]([C@@H](C)O)NC(=O)[C@H](C)NC(=O)[C@H](C)NC(=O)[C@@H]4CCCN4C(=O)[C@H](CC(=O)O)NC(=O)[C@H](CSSC[C@H](NC(=O)CN)C(=O)N[C@@H](C(C)C)C(=O)N[C@@H](CCCNC(=N)N)C(=O)N[C@@H](CC(C)C)C(=O)N[C@@H](Cc4c[nH]cn4)C(=O)N[C@@H](CCC(=O)O)C(=O)N[C@@H](CO)C(=O)N2)NC(=O)[C@H](CSSC[C@@H](C(=O)N[C@@H](CCCNC(=N)N)C(=O)O)NC(=O)[C@H](Cc2ccc(O)cc2)NC(=O)[C@@H]2CSSC[C@H](NC(=O)[C@H](Cc4ccc(O)cc4)NC3=O)C(=O)N[C@@H]([C@@H](C)O)C(=O)NCC(=O)N[C@@H](CCCNC(=N)N)C(=O)NCC(=O)N[C@@H](CC(=O)O)C(=O)N[C@@H](CCC(=O)O)C(=O)N[C@@H](CCCCN)C(=O)N[C@@H](CC(C)C)C(=O)N[C@@H](CCCNC(=N)N)C(=O)N2)NC(=O)[C@@H]2CCCN2C(=O)[C@H](C(C)C)NC(=O)[C@H](CCC(N)=O)NC(=O)[C@H](CCC(N)=O)NC(=O)CNC1=O [6C] (H-GCVRLHESCLGQQVPCCDPAATCYCTGRGDEKLRCYCR-OH; disulfide 2-17, 9-23, 16-37, 25-35; N-terminus and C-terminus assumed) | 15 ± 4 | 13 ± 2 | – | – | – | – | –
2 | CC(C)C[C@@H]1NC(=O)[C@@H]2CSSC[C@@H]3NC(=O)[C@H]([C@@H](C)O)NC(=O)[C@H](C)NC(=O)[C@H](C)NC(=O)[C@@H]4CCCN4C(=O)[C@H](CC(=O)O)NC(=O)[C@H](CSSC[C@H](NC(=O)CN)C(=O)N[C@@H](C(C)C)C(=O)N[C@@H](CCCNC(=N)N)C(=O)N[C@@H](CC(C)C)C(=O)N[C@@H](Cc4c[nH]cn4)C(=O)N[C@@H](CCC(=O)O)C(=O)N[C@@H](CO)C(=O)N2)NC(=O)[C@H](CSSC[C@@H](C(=O)N[C@@H](CCCNC(=N)N)C(=O)O)NC(=O)[C@H](Cc2ccc(O)cc2)NC(=O)[C@@H]2CSSC[C@H](NC(=O)[C@H](Cc4ccc(O)cc4)NC3=O)C(=O)N[C@@H](CO)C(=O)NCC(=O)N[C@@H](CCCNC(=N)N)C(=O)NCC(=O)N[C@@H](CC(=O)O)C(=O)N[C@@H](CC(N)=O)C(=O)N[C@@H](CC(=O)O)C(=O)N[C@@H](CC(C)C)C(=O)N[C@@H](C(C)C)C(=O)N2)NC(=O)[C@@H]2CCCN2C(=O)[C@H](C(C)C)NC(=O)[C@H](CCC(N)=O)NC(=O)[C@H](CCC(N)=O)NC(=O)CNC1=O [7A] (H-GCVRLHESCLGQQVPCCDPAATCYCSGRGDNDLVCYCR-OH; disulfide 2-17, 9-23, 16-37, 25-35; N-terminus and C-terminus assumed) | 0.89 ± 0.36 | 0.78 ± 0.37 | 17 | – | – | – | –
3 | CC(C)C[C@@H]1NC(=O)[C@@H]2CSSC[C@@H]3NC(=O)[C@H]([C@@H](C)O)NC(=O)[C@H](C)NC(=O)[C@H](C)NC(=O)[C@@H]4CCCN4C(=O)[C@H](CC(=O)O)NC(=O)[C@H](CSSC[C@H](NC(=O)CN)C(=O)N[C@@H](C(C)C)C(=O)N[C@@H](CCCNC(=N)N)C(=O)N[C@@H](CC(C)C)C(=O)N[C@@H](Cc4c[nH]cn4)C(=O)N[C@@H](CCC(=O)O)C(=O)N[C@@H](CO)C(=O)N2)NC(=O)[C@H](CSSC[C@@H](C(=O)N[C@@H](CCCNC(=N)N)C(=O)O)NC(=O)[C@H](Cc2ccc(O)cc2)NC(=O)[C@@H]2CSSC[C@H](NC(=O)[C@H](Cc4ccc(O)cc4)NC3=O)C(=O)N[C@@H](C(C)C)C(=O)NCC(=O)N[C@@H](CCCNC(=N)N)C(=O)NCC(=O)N[C@@H](CC(=O)O)C(=O)N[C@@H](CC(=O)O)C(=O)N[C@@H](CC(N)=O)C(=O)N[C@@H](CC(C)C)C(=O)N[C@@H](CCCCN)C(=O)N2)NC(=O)[C@@H]2CCCN2C(=O)[C@H](C(C)C)NC(=O)[C@H](CCC(N)=O)NC(=O)[C@H](CCC(N)=O)NC(=O)CNC1=O [7E] (H-GCVRLHESCLGQQVPCCDPAATCYCVGRGDDNLKCYCR-OH; disulfide 2-17, 9-23, 16-37, 25-35; N-terminus and C-terminus assumed) | 1.6 ± 1.1 | 1.4 ± 0.5 | – | – | – | – | –
4 | CSCC[C@@H]1NC(=O)[C@H](CC(=O)O)NC(=O)[C@H](CCCNC(=N)N)NC(=O)[C@H](CC(=O)O)NC(=O)CNC(=O)[C@H](CCCNC(=N)N)NC(=O)CNC(=O)[C@H](CCC(=O)O)NC(=O)[C@@H]2CSSC[C@H](NC(=O)[C@H](CCCCN)NC1=O)C(=O)N[C@@H](Cc1ccc(O)cc1)C(=O)N[C@H](C(=O)N[C@@H](CCCNC(=N)N)C(=O)O)CSSC[C@@H]1NC(=O)[C@@H]3CCCN3C(=O)[C@H](C(C)C)NC(=O)[C@H](CCC(N)=O)NC(=O)[C@H](CCC(N)=O)NC(=O)CNC(=O)[C@H](CC(C)C)NC(=O)[C@@H]3CSSC[C@H](NC(=O)[C@H]([C@@H](C)O)NC(=O)[C@H](C)NC(=O)[C@H](C)NC(=O)[C@@H]4CCCN4C(=O)[C@H](CC(=O)O)NC(=O)[C@H](CSSC[C@H](NC(=O)CN)C(=O)N[C@@H](C(C)C)C(=O)N[C@@H](CCCNC(=N)N)C(=O)N[C@@H](CC(C)C)C(=O)N[C@@H](Cc4c[nH]cn4)C(=O)N[C@@H](CCC(=O)O)C(=O)N[C@@H](CO)C(=O)N3)NC1=O)C(=O)N[C@@H](Cc1ccc(O)cc1)C(=O)N2 [7J] (H-GCVRLHESCLGQQVPCCDPAATCYCEGRGDRDMKCYCR-OH; disulfide 2-17, 9-23, 16-37, 25-35; N-terminus and C-terminus assumed) | 16 ± 8 | 8.3 ± 1.8 | – | – | – | – | –
5 | DOTA-conjugated FN-RDG2: DOTA conjugate of negative control with RGD switched to RDG (GCVTGRDGSPASSCSQDSDCLAGCVCGPNGFCG; cysteine pairing not given here; also: DOTA conjugate, position not given here) | – | – | – | did not bind | did not bind | did not bind | did not bind
